In patent publication US10254283B2, “Biomarker for MELK activity and methods of using same” (Dana-Farber Cancer Institute, Inc., priority 2013, dated 2019):
“Also recorded” adds a separate entry of the source.

Key:
[1] = tested on: phosphorylation of eIF4B at S406; assay: Immunoblotting of eIF4B S406 phosphorylation in drug-treated mitotic cells; format: cell-based, human
Protocol: MDA-MB-468 cells stably expressing tetracycline-inducible (tet-on) small hairpin MELK (shMELK) in the presence or absence of doxycycline were harvested through treatment of nocodazole, and subjected to immunoblotting. […] Mitotic MDA-MB-468 cells were treated for 30 min with vehicle or 200 nM OTSSP167, a MELK inhibitor (Chung et al. (2012) Oncotarget 3:1629-1640). Lysates were used for immunoblotting.
(§1) For treatment with nocodazole, cells were refreshed with medium containing nocodazole (200 ng/ml). Twenty hours after treatment, floating mitotic cells were harvested by gental shake-off. For drug treatment, cells were seeded in multi-well plate, in the presence of OTSSP167 (ChemExpress, HY15512; 10 mM stock made in DMSO).
(§2) Cells were harvested and lysed with RIPA buffer (25 mM Tris, pH 7.4, 150 mM NaCl, 1% Nonidet P-40, 0.5% sodium deoxycholate, and 0.1% sodium dodecyl sulfate) supplemented with protease inhibitors cocktail (Roche) and phosphatase inhibitors cocktail (Thermo Scientific). Cleared lysates were analyzed for protein concentration using a BCA kit (Thermo Scientific). Equal amount of protein (10-20 μg) was resolved on SDS-PAGE, and was subsequently transferred onto a nitrocellulose or polyvinylidene difluoride membrane (Amersham). The membrane was blocked with 5% non-fat milk and was then incubated with primary antibodies overnight at 4° C. After washing, the membrane was incubated with fluorophore-conjugated secondary antibodies for 1 h at room temperature. The membrane was then washed and scanned with an Odyssey® Infrared scanner (Li-Cor Biosciences).
The following antibodies were used for immunoblotting or immunoprecipitation, MELK (Epitomics, 2916), p-eIF4B (S406) (Cell Signaling, 8151), p-eIF4B (S422) (Cell Signaling, 3591), eIF4B (Cell Signaling, 3592), c-Myc (Cell Signaling, 5605), XIAP (Cell Signaling, 2045), p-Akt (S473) (Cell Signaling, 4060), p-MAPK (T202/Y204) (Cell Signaling, 4370), cleaved PARP (Asp214) (Cell Signaling, 9541), Aurora A (Cell Signaling, 4718), Aurora B (Cell Signaling, 3094), p-Aurora A (T288)/Aurora B (T232)/Aurora C (T198) (Cell Signaling, 2914), p-Histone H3 (T3) (Cell Signaling, 13576), p-Histone H3 (S10) (Cell Signaling, 3377), p-Histone H3 (T11) (Cell Signaling, 9767), p-Histone H3 (S28) (Cell Signaling, 9713), ODC (Sigma, O1136), Vinculin (Sigma, V9131, alpha-tubulin (Sigma, T9016), anti-HA magnetic beads (Pierce, 88836), anti-Flag magnetic beads (Sigma, M8823). Secondary antibodies used were Alexa Fluor 680 goat anti-rabbit IgG (Invitrogen A-21109) and IRDye800-conjugated anti-mouse IgG (Rockland).

[2] = molecular target: T1, recombinant MELK (kinase domain) (Homo sapiens, UniProt Q14680); assay: In vitro kinase assay, recombinant MELK (kinase domain) with recombinant Histone H3, immunoblotting; format: biochemical; conditions: 200 ng/ml final, 30 min at 30° C. (FIG. 12)
T1 construct: incubated without or with recombinant MELK (kinase domain) for 30 min. at 30° C
Protocol: Reactions were terminated by adding SDS sample buffer. Samples were subjected to immunoblotting using the indicated antibodies.
Flag-tagged eIF4B or Flag-eIF4B (S406A) was transfected into HEK293T cells (4 μg DNA for cells in one 60 mm dish). Thirty-six hours after transfection, cells were lysed with IP buffer (100 mM NaCl, 50 mM Tris, pH 7.5, 0.5% NP-40, 0.5% Sodium deoxycholate, supplemented with protease/phosphatase inhibitor cocktail). Lysates were cleared via incubating with anti-mouse IgG conjugated to magnetic beads (4° C., 30 min), and then immunoprecipitated with anti-Flag M2 magnetic beads (Sigma) (4° C., 120 min). The beads with bound antigens were washed 5 times with IP buffer. Beads during the last wash were aliquoted into 1.5 ml microcentrifuge tubes. After removal of IP buffer, the beads were washed once with 1× kinase buffer without ATP (5 mM Tris, pH 7.5, 5 mM-βglycerophosphate, 2 mM dithiothreitol, 0.1 mM Na3VO4, 10 mM MgCl2; Cell Signaling). After the wash, 40 μl 1× kinase buffer with 200 mM ATP was added to each tube, followed by 5 ul buffer without or with 500 ng recombinant MELK. The reaction was incubated at 30° C. for 30 min, and terminated by adding 40 ul 2×SDS sample buffer. The samples were then boiled and subjected to immunoblotting. […]

[3] = tested on: mitotic phosphorylation of Histone H3; assay: Immunoblotting of mitotic Histone H3 phosphorylation in drug-treated cells; format: cell-based, human
Protocol: Mitotic cells were harvested through nocodazole-induced cell cycle arrest at prometaphase (200 ng/ml nocodazole, 20 hours). Cells were treated with the small chemical inhibitor of MELK, OTSSP167, for 30 min, at the indicated concentrations. Cell lysates were then prepared for immunoblotting.
as §1
as §2, with “The membrane was then washed and scanned with an Odyssey® Infrared scanner (Li-Cor Biosciences).” left out

[4] = mitotic cells treated for 30 min, mTOR inhibitors versus MELK inhibitor (FIG. 6)

T1 sequence (Q14680 11-263 limits assumed): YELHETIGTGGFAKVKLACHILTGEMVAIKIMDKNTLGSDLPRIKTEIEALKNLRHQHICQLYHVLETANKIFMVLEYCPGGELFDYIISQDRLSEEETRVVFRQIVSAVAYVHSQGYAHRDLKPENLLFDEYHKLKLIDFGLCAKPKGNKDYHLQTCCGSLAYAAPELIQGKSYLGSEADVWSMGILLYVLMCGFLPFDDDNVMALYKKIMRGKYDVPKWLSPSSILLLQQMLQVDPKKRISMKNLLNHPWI

Row | Structure (SMILES) | phosphorylation of eIF4B at S406 [1, 4] | phosphorylation of eIF4B at S406 ([1]; mitotic cells treated for 30 min, mTOR inhibitors versus MELK inhibitor (FIG. 6), listed as torins) | phosphorylation of eIF4B at S406 ([1]; mitotic MDA-MB-468 cells, 200 nM, 30 min, vs vehicle (FIG. 5 right panels)) | MELK-induced phosphorylation of Histone H3 at Ser 10 in vitro [2] | phosphorylation of Histone H3 at Thr3/Ser10/Thr11 ([3]; MDA-MB-468 cells (text cites FIG. 12)) | mitotic phosphorylation of Histone H3 at Thr-3, Ser-10 and Thr-11 ([3]; nocodazole-arrested mitotic cells, 30 min, indicated concentrations (FIG. 13))
1 | CCC(=O)N1CCN(c2ccc(-n3c(=O)ccc4cnc5ccc(-c6cnc7ccccc7c6)cc5c43)cc2C(F)(F)F)CC1 [Torin 1] | not mTOR inhibition | do not produce the same results | – | – | – | –
2 | CC(=O)c1cnc2ccc(-c3cc(Cl)c(O)c(Cl)c3)nc2c1N[C@H]1CC[C@H](CN(C)C)CC1 [OTSSP167] | suppressed the phosphorylation of eIF4B at S406 | – | impairs the phosphorylation of eIF4B at S406 | suppresses MELK-induced phosphorylation of Histone H3 at Ser 10 | reduced phosphorylation of Histone H3 at Thr3/Ser10/Thr11 | concentration-dependent reduction; also recorded: suppresses the mitotic phosphorylation of Histone H3 at Thr-3, Ser-10 and Thr-11
